According to patent publication US8765729B2, “Cancer therapy” (Aeolus Sciences, Inc., priority 2001, dated 2014):

What was measured:
[1] = system: R3230 mammary adenocarcinoma cells in Z-chambers; experiment: Tumor development in Z-chambers; format: in vivo, Fisher-344 rats; details: 6 mg/kg i.p. 24 hours before implantation of 2.5 mil./ml cells
Experimental: FIG. 4. Animals were pretreated with different SOD mimetics (6 mg/kg i.p.) 24 hours before implantation of 2.5 mil./ml R3230 mammary adenocarcinoma cells in Z-chambers.
These chambers are constructed from customized plexi-glass rings with internal diameter of 10 mm and have a pore on the side. The two open surfaces are covered by nylon mesh (pore size 180 microns, Millipore, Mass.) and glued to the rings. Fibrinogen (Human fibrinogen, plasminogen depleted, CalBiochem) is prepared in DMEM, Gibco BRL) and a concentration of 4-5 mg/ml is utilized for the studies. Although the Fischer rats used in the study are immune competent, this purified batch of fibrinogen has been recognized to be very well conserved across species lines. It has already been shown that early angiogenic response to human fibrinogen is very similar to rat fibrinogen in fibrin gel chambers. The two different types of fibrinogen have also been tested in the Z-Chambers and no difference was found in angiogenic and healing response. Human fibrinogen was used.
The Fibrin Z-Chambers have fibrinogen solution poured inside the chamber through the pore and followed by 2 units of thrombin. […]
The Z-Chambers were harvested on day 1 or 12 post surgery. […] The depth of either the tumor tissue (tumor growth) or granulation tissue (wound healing) was measured with calipers on the 4×6 inch print. […]

[2] = system: R3230 AC mammary adenocarcinoma; experiment: R3230 AC mammary adenocarcinoma growth and radiation response in Fischer 344 rats; format: in vivo; details: for tumor growth as compared to control (Day 20 Tumor Ratio, Days for 5-fold tumor growth): 6 mg/kg/day IP Day 1 to 20, FIG. 2C
Experimental: FIGS. 2A-2C. (FIG. 2A) B16 melanoma tumor treated with SOD mimetic. The mimetic was 10113 at a dose of 6 mg/kg given intraperitoneally qd for 5 days. (FIG. 2B) Mammary adenocarcinoma treated with SOD mimetic. 10113 was given intraperitoneally at a dose of 6 mg/kg/day for 16 days. Radiation therapy (RT), 21 Gy, was given on day 8 or 9. (FIG. 2C) Fischer 344 rats with subcutaneously implanted R3230 AC mammary adenocarcinomas received Radiation treatment (21 Gy Day 1), AEOL 10113 (6 mg/kg/day IP Day 1 to 20), the combination Radiation and AEOL 10113 (as above), or Control treatment.
The effect of the MnTE-2-PyP (manganese(III) tetrakis(N-ethylpyridinium-2-yl)porphyrin) on tumor growth and radiation response in two tumor models has been tested. […] The effect of the SOD mimetic. MnTE-2-PyP, on tumor growth and radiation response has been tested in a rat model.
[…] AC mammary adenocarcinoma was transplanted on the right hind leg. When the tumors reached 0.8-1 cm in diameter, the rats were randomized into 4 groups to receive 1) Saline (control); 2) Drug 10150; 3) Drug 10113; 4) Drug 10201. Drugs were given daily in dose of […] i.p. The tumor size was measured twice a week. (FIG. 3).

`CC[n+]1ccccc1-c1c2nc(c(-c3cccc[n+]3CC)c3ccc([n-]3)c(-c3cccc[n+]3CC)c3nc(c(-c4cccc[n+]4CC)c4ccc1[n-]4)C=C3)C=C2.[Mn+3]` [Compound 10113, manganese(III)tetrakis(N-ethylpyridinium-2-yl)porphyrin] was tested. Which tumor development [1] did it give?
The tumor development was “Significant (p<0.01) inhibition of tumor development”.

And the “tumor growth as compared to control (Day 20 Tumor Ratio, Days for 5-fold tumor growth)” value ([2]; listed as AEL 10113)?
Its value is “limited tumor growth”.

What about the “tumor growth as compared to control (Day 20 Tumor Ratio, Days for 5-fold tumor growth)” value ([2]; listed as AEOL 10113) of the same compound?
The value was “significantly (p<0.05) inhibited tumor growth”.

What about the post-radiation tumor regrowth ([2]; radiation 21 Gy plus mimetic) of the same compound?
Its post-radiation tumor regrowth is “significant inhibition of the post-radiation tumor regrowth”.

What about the “effect on tumor response to radiation” value ([2]; radiation 21 Gy plus mimetic, listed as AEL 10113) of the same compound?
Its value is “did not diminish the effect of radiation on tumor growth”.

What about the “effect on tumor response to radiation” value ([2]; radiation 21 Gy plus mimetic, listed as MnTE-2-PyP) of the same compound?
The value was “does not protect tumor from irradiation”.

And the “inhibition of tumor growth” value ([2]; rat model, SOD mimetic alone)?
The value was greater than 50%.
